doi:10.1101/2023.08.31.555663, “Computational exploration of the global microbiome for antibiotic discovery” (bioRxiv, 2023)
Where a SMILES comes first, the peptide text is derived from it. Bridges are numbered along the chain shown (N, C = ends). [ ]: non-standard residue; d: D form. The star is where a group is joined. X1 = CC[C@H](C)CCCCC(=O)*; Dab = NCC[C@H](N)C(=O)O

Key:
[1] = system: Acinetobacter baumannii ATCC 19606; conditions: broth microdilution, LB broth, 24 h at 37 °C, two-fold dilutions 64 to 1 μmol·L^−1, absorbance 600 nm, mode of three independent replicates
Procedure: Amino acid composition, structure, antimicrobial activity, and mechanism of action of c_AMPs. […] (AC) Activity of c_AMPs assessed against ESKAPEE pathogens and human gut commensal strains. Briefly, 10^6 CFU·mL^−1 was exposed to c_AMPs two-fold serially diluted ranging from 64 to 1 μmol·L^−1 in 96-wells plates and incubated at 37 °C for one day. After the exposure period, the absorbance of each well was measured at 600 nm. Untreated solutions were used as controls and minimal concentration values for complete inhibition were presented as a heat map of antimicrobial activities (μmol·L^−1) against 11 pathogenic and eight human gut commensal bacterial strains.

A. baumannii ATCC 19606 = experiment: Skin abscess infection mouse model; assay type: in vivo; conditions: CD-1 mice, n=3
Procedure: Figure 7. Anti-infective activity of AMPs in pre-clinical animal model. (A) Schematic of the skin abscess mouse model used to assess the anti-infective activity of the peptides against A. baumannii cells. (B) Peptides were tested at their MIC in a single dose one hour after the establishment of the infection. Each group consisted of three mice n=3 and the bacterial loads used to infect each mouse derived from a different inoculum. (C) To rule out toxic effects of the peptides, mouse weight was monitored throughout the experiment. Statistical significance in (B) was determined using one-way ANOVA where all groups were compared to the untreated control group; P-values are shown for each of the groups. Features on the violin plots represent median and upper and lower quartiles. Data in (C) are the mean ± the standard deviation. Figure created in BioRender.com. […]
To assess the anti-infective efficacy of the peptides against A. baumannii ATCC 19606 in a skin abscess infection mouse model, the bacteria were cultured in tryptic soy broth (TSB) medium until an OD600 of 0.5 was reached. […] The animals were euthanized two- and four-days post-infection, and the infected area was extracted and homogenized for 20 min using a bead beater (25 Hz) and 10-fold serially diluted for CFU quantification on MacConkey agar plates for easy differentiation of A. baumannii colonies. […]

Structure (SMILES): CC[C@H](C)CCCCC(=O)N[C@@H](CCN)C(=O)N[C@H](C(=O)N[C@@H](CCN)C(=O)N[C@H]1CCNC(=O)[C@H]([C@@H](C)O)NC(=O)[C@H](CCN)NC(=O)[C@H](CCN)NC(=O)[C@H](CC(C)C)NC(=O)[C@@H](Cc2ccccc2)NC(=O)[C@H](CCN)NC1=O)[C@@H](C)O [polymyxin B] (X1-[Dab]T[Dab][Dab][Dab][dF]L[Dab][Dab]T; lactam 4-C (inferred); N-terminus assumed)
- Minimal Inhibitory Concentration, A. baumannii ATCC 19606 [1]: 0.25 µmol/L
- Kind of anti-infective activity against A. baumannii in skin abscess (A. baumannii ATCC 19606; single dose at MIC on the infected area, two days post-infection): bactericidal activity
- Reduction of CFU counts compared to the untreated control (A. baumannii ATCC 19606; skin abscess, A. baumannii, single dose at MIC, four days post-infection): 1–2 orders of magnitude
